Assay results: patent publication US9688651B2, “Geranyl geranyl acetone analogs and uses thereof” (NYKEN Holding B.V., priority 2012, dated 2017)

Assays:
[1] = system: MCF-7 breast cancer cells; assay: MCF-7 cell death, ratio death/living cells (trypan blue); assay type: cell-based, human; parameters: key to Cell Death MCF-7 cancer cells Death/living 100 μM: 0 = no dead cells; + = P < 0.05; ++ = P < 0.01; +++ = P < 0.001; details: 100 μM; 16-20 hours; trypan blue
Protocol: MCF-7 breast cancer cells were cultured in DMEM supplemented with 10% FCS. […] Ratio death and living cells was determined by using trypan blue staining of death cells. The cell pellets were lysed in RIPA buffer and used for Western blot analysis.
Since we observed that some compounds aggravate tachypacing-induced contractile dysfunction, we next investigated if these compounds can induce programmed cell death in a human breast cancer cell-line MCF-7. […] In total 28 compounds were tested for cell death. […] GGA was used as a control as well as non-treated MCF-7 cells. […] The findings indicate that GGA-like compounds which aggravate heart failure can induce programmed cell death in MCF-7 breast cancer cell-line.

HSP70 [2] = assay: Hsp70 induction in murine proximal tubule (MPT) cells (Western blot); assay type: cell-based; details: 40 μM, 5 hours, outperformed positive control GGA
Protocol: Murine proximal tubule (MPT) cells were isolated and cultured as described previously (Borkan et al. Heat stress ameliorates ATP depletion-induced sublethal injury in mouse proximal tubule cells. Am. J. Physiol. 1997; F347-55).
The MPT cells were exposed to 40 μM of compound for 5 hours, after which the cells were harvested in RIPA buffer followed by Western blotting.
For Western-blot analysis, equal amount of protein in SDS-PAGE sample buffer was separated on 10% PAA-SDS gels. After transfer to nitrocellulose membranes (Stratagene, USA), membranes were incubated with primary antibodies against HSP70 (Enzo C92F3A/StressGen SP810) or beta-actin (Sigma A541). Horseradish peroxidase-conjugated anti-mouse or anti-sheep (Jackson ImmunoRes) was used as secondary antibody. Signals were detected by the ECL-detection method (Amersham).

HSP70 [3] = assay: HSP70 protein boosting in HL-1 cardiomyocytes after mild heat shock (Western blot); assay type: cell-based, mouse; parameters: key to HSP boosting HL-1 cardiomyocytes Protein HSP70: 0 = no induction HSP levels; + = 2-10-fold induction; ++ = 10-30-fold induction; +++ = > 30-fold induction; details: for HSP boosting HL-1 cardiomyocytes Protein HSP70: mild heat shock 44°C 10 min, then compound 10 μM for 6 hours, Western blot; for induction of mammalian HSP70 protein expression: HL-1, mild heat shock, 10 μM, 6 hours
Protocol: HL-1 atrial myocytes, a cell line derived from adult mouse atria were obtained from Dr. William Claycomb (Louisiana State University, New Orleans, La., USA). The myocytes were maintained in Complete Claycomb Medium (JRH, UK) supplemented with 100 μM norepinephrine stock (consisting of 10 mM norepinephrine (Sigma, The Netherlands) dissolved in 0.3 mM L-ascorbic acid (Sigma)), 4 mM L-glutamine (Gibco, The Netherlands) and 10% FBS (Sigma). The myocytes were cultured in flasks coated with 0.02% gelatin (Sigma), in a 5% CO2 atmosphere at 37° C.
HL-1 cardiomyocytes were subjected to a mild heat shock of 44° C. for 10 minutes. After a recovery of 10 minutes (37 degrees 5% CO2), compounds were added in a final concentration of 10 μM (dissolved in DMSO, final concentration 0.1%). To control myocytes, 0.1% DMSO was added. After six hours the cells were lysed in RIPA buffer and used for Western blotting as described previously.^3, 10
(§1) Western-blot analysis was performed as described previously^3, 10. Equal amount of protein in SDS-PAGE sample buffer was sonicated before separation on 10% PAA-SDS gels. After transfer to nitrocellulose membranes (Stratagene, The Netherlands), membranes were incubated with primary antibodies against HSP25 (Stressgen, The Netherlands, SPA-801, 1:1000), HSP27 (Stressgen, SPA-800, 1:1000), HSP70 (Stressgen, SPA-810, 1:1000), GAPDH (Affinity Reagents, The Netherlands) or PARP (Santa Cruz, The Netherlands, sc-7150, 1:500). Horseradish peroxidase-conjugated anti-mouse or anti-rabbit (Santa-Cruz Biotechnology, The Netherlands) was used as secondary antibody. Signals were detected by the ECL-detection method (Amersham, The Netherlands) and quantified by densitometry using GeneTools software from Syngene (The Netherlands).
Compounds were also screened for HSP70 boosting effects. Hereto, HL-1 cardiomyocytes were first subjected to a mild heat shock which activates the Heat Shock Factor. After the mild heat shock, compound (10 μM) was added to the medium of HL-1 cardiomyocytes for 6 hours, followed by determination of the HSP70 amount.

PARP = PARP cleavage in MCF-7 cells (Western blot); assay type: cell-based, human; parameters: key to Cell Death MCF-7 cancer cells PARP: 0 = no dead cells; + = P < 0.05; ++ = P < 0.01; +++ = P < 0.001; details: MCF-7 lysate, Western blot, 16-20 hours
Protocol: (§2) MCF-7 breast cancer cells were cultured in DMEM supplemented with 10% FCS. Test compounds were added to the medium in a final concentration of […] for 16-20 hours. Ratio death and living cells was determined by using trypan blue staining of death cells. The cell pellets were lysed in RIPA buffer and used for Western blot analysis.
as §1
Since we observed that some compounds aggravate tachypacing-induced contractile dysfunction, we next investigated if these compounds can induce programmed cell death in a human breast cancer cell-line MCF-7. Hereto, MCF-7 cells were incubated for 16 hours with 10 μM of a test compound after which the number of death and living cells was determined. In total 28 compounds were tested for cell death. […] GGA was used as a control as well as non-treated MCF-7 cells. […] The findings indicate that GGA-like compounds which aggravate heart failure can induce programmed cell death in MCF-7 breast cancer cell-line.

HSP27 = HSP27 Western blot in MCF-7 cells; assay type: cell-based, human; parameters: key: + = P < 0.05; ++ = P < 0.01; +++ = P < 0.001; details: MCF-7 lysate, 16-20 hours
Protocol: as §2, §1

HSP70 [4] = assay: HSP70 Western blot in MCF-7 cells; assay type: cell-based, human; parameters: key: + = P < 0.05; ++ = P < 0.01; +++ = P < 0.001; details: MCF-7 lysate, 16-20 hours
Protocol: as §2, §1

[5] = system: HSP70, HSP25, HSP90 and HSP40; assay: Upregulation of HSP gene expression (HSF1 targets) in HL-1 cardiomyocytes; assay type: cell-based, mouse; details: HL-1, mild heat shock, 10 μM, 6 hours
Protocol: (§3) HL-1 cardiomyocytes were subjected to a mild heat shock of 44° C. for 10 minutes. After a recovery of 10 minutes (37 degrees 5% CO2), compounds were added in a final concentration of 10 μM (dissolved in DMSO, final concentration 0.1%). To control myocytes, 0.1% DMSO was added. After six hours the cells were lysed in RIPA buffer and used for Western blotting as described previously.^3, 10 Compounds were also screened for their ability to upregulate HSP gene expression. Hereto, HL-1 cardiomyocytes were first subjected to a mild heat shock which activates the Heat Shock Factor. After the mild heat shock, compound (10 μM) was added to the medium of HL-1 cardiomyocytes for 6 hours, followed by determination of HSP70, HSP25, HSP90 and HSP40 which are targets of the heat shock factor 1 (HSF1) transcription factor. In addition, we determined mRNA levels of the gene encoding the glucose-responsive protein 78 (Grp78) which is HSF1-independent.

[6] = system: glucose-responsive protein 78 (Grp78); assay: Grp78 mRNA (qPCR, HSF1-independent) in HL-1 cardiomyocytes; assay type: cell-based, mouse; parameters: key to HSP boosting HL-1 cardiomyocytes mRNA (qPCR) Grp78 Not HSF1: 0 = no induction HSP levels; + = 2-10-fold induction; ++ = 10-30-fold induction; +++ = > 30-fold induction; details: for upregulation of Grp78 mRNA: HL-1, mild heat shock, 10 μM, 6 hours; for HSP boosting HL-1 cardiomyocytes mRNA (qPCR) Grp78 Not HSF1: mild heat shock, then compound 10 μM for 6 hours
Protocol: as §3

HSP25 = HSP25 mRNA (qPCR) in HL-1 cardiomyocytes after mild heat shock; assay type: cell-based, mouse; details: then compound 10 μM for 6 hours
Protocol: as §3

HSP40 = HSP40 mRNA (qPCR) in HL-1 cardiomyocytes after mild heat shock; assay type: cell-based, mouse; details: then compound 10 μM for 6 hours
Protocol: as §3

HSP90 = HSP90 mRNA (qPCR) in HL-1 cardiomyocytes after mild heat shock; assay type: cell-based, mouse; details: then compound 10 μM for 6 hours
Protocol: as §3

HSP70 [7] = assay: HSP70 mRNA (qPCR) in HL-1 cardiomyocytes after mild heat shock; assay type: cell-based, mouse; details: then compound 10 μM for 6 hours
Protocol: as §3

Row | Structure (SMILES) | Cell Death MCF-7 cancer cells Death/living 100 μM [1] | induction of HSP70 expression in renal (MPT) cells (HSP70 [2]) | HSP boosting HL-1 cardiomyocytes Protein HSP70 (HSP70 [3]) | Cell Death MCF-7 cancer cells PARP (PARP) | Cell Death MCF-7 cancer cells HSP 27 (HSP27) | Cell Death MCF-7 cancer cells HSP 70 (HSP70 [4]) | induction of mammalian HSP70 protein expression (HSP70 [3]) | induction of HSP gene expression [5] | upregulation of Grp78 mRNA [6] | HSP boosting HL-1 cardiomyocytes mRNA (qPCR) HSP 25 (HSP25) | HSP boosting HL-1 cardiomyocytes mRNA (qPCR) HSP 40 (HSP40) | HSP boosting HL-1 cardiomyocytes mRNA (qPCR) Grp78 Not HSF1 [6] | HSP boosting HL-1 cardiomyocytes mRNA (qPCR) HSP 90 (HSP90) | HSP boosting HL-1 cardiomyocytes mRNA (qPCR) HSP 70 (HSP70 [7])
1 | CC(C)=CCC/C(C)=C/CCc1cc(C)[nH]n1 [Compound 32] | 0 | strong inducers | + (+ = 2-10-fold induction) | 0 | + (+ = P < 0.05) | 0 |  |  |  |  |  |  |  | 
2 | CCOC(=O)CC(=O)c1ccccc1O [Compound 60, Ethyl 3-(2-hydroxyphenyl)-3-oxopropanoate] |  |  |  |  |  |  | potent inducers | strong inducers | no upregulation |  |  |  |  | 
3 | CCOC(=O)C(CC)C(=O)CC/C=C(\C)CCC=C(C)C (stereo not shown) [Compound 69] |  | strong inducers | 0 |  |  |  |  |  |  |  |  |  |  | 
4 | CC(C)=CCC/C(C)=C/CNC(=O)CN(C)C [Compound 49] | 0 | strong inducers | +++ (+++ = > 30-fold induction) | 0 | 0 | 0 | potent inducers |  |  | +++ (+++ = > 30-fold induction) | +++ (+++ = > 30-fold induction) | 0 | +++ (+++ = > 30-fold induction) | 
5 | CC(C)=CCC/C(C)=C/CN1C(=O)CCC1=O [Compound 47] |  | strong inducers |  |  |  |  |  |  |  |  |  |  |  | 
6 | CCOC(=O)C(Cc1ccccc1)C(=O)CC/C=C(\C)CCC=C(C)C (stereo not shown) [Compound 23] |  |  |  |  |  |  | potent inducers | strong inducers | no upregulation | + (+ = 2-10-fold induction) | + (+ = 2-10-fold induction) | 0 | + (+ = 2-10-fold induction) | ++ (++ = 10-30-fold induction)
7 | CC(=O)N[C@@H](C)C(=O)NC/C=C(\C)CCC=C(C)C [Compound 95] |  | strong inducers | +++ (+++ = > 30-fold induction) |  |  |  | potent inducers |  |  | + (+ = 2-10-fold induction) | + (+ = 2-10-fold induction) | 0 | ++ (++ = 10-30-fold induction) | 
8 | CC(=O)OC/C=C(\C)CC/C=C(\C)COC1CCCCO1 (stereo not shown) [Compound 106] |  | strong inducers |  |  |  |  |  |  |  |  |  |  |  | 
9 | CCOC(=O)C(C)(C)C(=O)CC/C=C(\C)CCC=C(C)C [Compound 76, (E)-ethyl 2,2,7,11-tetramethyl-3-oxododeca-6,10-dienoate] |  |  | +++ (+++ = > 30-fold induction) |  |  |  | potent inducers | strong inducers | no upregulation | ++ (++ = 10-30-fold induction) | + (+ = 2-10-fold induction) | 0 | ++ (++ = 10-30-fold induction) | +++ (+++ = > 30-fold induction)
10 | CC(=O)CC/C=C(\C)CC/C=C(\C)CC/C=C(\C)CCC=C(C)C [GGA, (5E,9E,13E)-6,10,14,18-tetramethylnonadeca-5,9,13,17-tetraen-2-one, reference compound] | 0 |  | ++ (++ = 10-30-fold induction) | 0 | + (+ = P < 0.05) | 0 |  |  |  | ++ (++ = 10-30-fold induction) | + (+ = 2-10-fold induction) | 0 | ++ (++ = 10-30-fold induction) | + (+ = 2-10-fold induction)
